The source of these data is patent publication US10653685B2, “Pharmaceutical compositions and methods for the treatment of hypoxia-related diseases” (priority 2015, dated 2020).

Assay [1] has as its system rat primary heart cells. Kind of assay: CK released by rat primary heart cells under hypoxia. The conditions noted are these: hypoxia 3 hours. It is filed as cell-based. As to the method:
(§1) Sprague Dawley rat hearts (1-2 days old) were sterilely removed and bathed three times in Ca^++ and Mg^++—free PBS to remove excess blood cells. The hearts were minced to small fragments and then agitated in a proteolytic enzyme-RDB solution (Life Science research, Inst., Nes Ziona, Israel) prepared from a fig tree extract as described previously (Brik et al., Basic Res. Cardiol. 85:237-246, 1990), Shneyvays et al., J Mol Cell Cardiol. 33:1249-1261, 2001). The RDB-solution was then diluted 1:200 in PBS at 25° C. for a few cycles of 10 min each. The supernatant suspension containing dissociated cells, to which medium containing 10% horse serum was added, was centrifuged at 500 g for 5 min. After centrifugation, the supernatant phase was discarded, and cells were re-suspended in Dulbecco's modified Eagle medium supplemented with 10% heat-inactivated horse serum and 0.5% chick embryo extract. Cell suspensions were diluted to 1×10^6 cells/ml, and […] samples were placed in 24 well plates (4 plates) collagen/gelatin coated plastic culture dishes. […] The day after, Cells were washed to remove dead cells, and growth medium was replaced, as well as every 2 days and before experiment initiation, this time with glucose-free PBS. The experiments were then performed in vitro on these cardiomyocyte cultures after 5 days following the day of procedure beginning. Right before Hypoxia experiments, cultures wells were incubated in a humidified atmosphere incubator of 5% CO2 and 95% air at 37° C. for 30 minute steady state.
(§2) Approximately 3×10^5 cardiomyocytes/well from neonatal rat hearts were cultured with glucose-free PBS and exposed to hypoxia (oxygen and glucose deprivation) for 180 min. using a procedure essentially as described by O. Golan et al. (Biochemical pharmacology, 81 (2011), pp. 1219-1227)
(§3) In brief, Hypoxia was performed in a closed chamber by replacement of air with 100% Argon. During hypoxia Oxygen levels in the N2 atmosphere was below 1%. And after 180 min. of hypoxia, the pO2 in the PBS was <0.4 Torr. Hypoxic stress injury was determined based on the activity of lactate dehydrogenase (LDH) and creatine kinase (CK) released from the cells, at the end of 3 hr. hypoxic phase, and consequently after additional 2 hr. of reoxygenation.
For both LDH and CK measurements, 25 μL aliquots of each well incubated for 180 min under hypoxia, were transfer to clean 24 wells trays, which were placed within the automatic spectrophotometer and the product of the enzyme activity was measured through a wavelength of 340 nm at 30° C., under shaking. […]
Creatine Kinase (CK) activity was determined within the cardiac cell medium (PBS) using CK-NAC Reagent (Creatine kinase, activated by N-acetyl cysteine) from Thermo Fisher Scientific Inc. Middletown, Va. […]

Assay [2] concerns rat primary heart cells. Description: LDH released by rat primary heart cells under hypoxia. The conditions noted are these: hypoxia 3 hours. The assay is classed as cell-based. How it is done:
as §1, §2, §3
For both LDH and CK measurements, 25 μL aliquots of each well incubated for 180 min under hypoxia, were transfer to clean 24 wells trays, which were placed within the automatic spectrophotometer and the product of the enzyme activity was measured through a wavelength of 340 nm at 30° C., under shaking. Results were expressed relatively to the control.
Lactate dehydrogenase (LDH) activity was determined within the cardiac cell medium (PBS) using LDH-L kit (Thermo Trace, Melbourne, Australia). […]
In general terms: LDH leaks from cells whose membrane has failed.

In the next assay the test system is heart cells. The conditions noted are these: maximum protection, WO 2013/003445; cited from earlier work.

Take `c1ccc(CN(CCN(Cc2ccccn2)Cc2ccccn2)Cc2ccccn2)nc1` [TPEN, N,N,N′,N′-tetrakis-(2-pyridylmethyl)-ethylenediamine]: the “CK Reduction” value in the assay on rat primary heart cells [1] (sodium alginate 0, TPEN 0.3 μM) came out at 46.6%; in the assay on rat primary heart cells [1] (sodium alginate 0, TPEN 1 μM), 14.3%. The “Mean (CK released from rat heart cells)” value came out at 0.0411 with rat primary heart cells [1] (sodium alginate 0, TPEN 0.3 μM) and 0.0643 in the assay on rat primary heart cells [1] (sodium alginate 0, TPEN 1 μM). In addition, the “LDH Reduction” value with rat primary heart cells [2] (sodium alginate 0, TPEN 0.3 μM) turned out to be 39.5%; in the assay on rat primary heart cells [2] (sodium alginate 0, TPEN 1 μM), 10.0%. For the same molecule, the “Mean (LDH released from rat heart cells)” value in the assay on rat primary heart cells [2] (sodium alginate 0, TPEN 0.3 μM) is listed as 0.0409; in the assay on rat primary heart cells [2] (sodium alginate 0, TPEN 1 μM) it was 0.0647. Also, the “protection from hypoxia stress injury” value with heart cells is given as at most 70%.
